This note sets out measurements from publication PMC7156456, “Modulation of virus-induced NF-κB signaling by NEMO coiled coil mimics” (Nature Communications, 2020).

SMILES strings stand for the structures. Where only a bound is given, the exact number is not on record here.

The target in this test is T1, vFLIP/NEMO interaction (Human herpesvirus 8 type P, UniProt F5HEZ4).
T1 construct: vFLIP (1-178) and NEMO (150-272) were cloned into pET28a vector; made in house; host or cells: E. coli BL21(DE3)
T1 sequence (F5HEZ4 1-178): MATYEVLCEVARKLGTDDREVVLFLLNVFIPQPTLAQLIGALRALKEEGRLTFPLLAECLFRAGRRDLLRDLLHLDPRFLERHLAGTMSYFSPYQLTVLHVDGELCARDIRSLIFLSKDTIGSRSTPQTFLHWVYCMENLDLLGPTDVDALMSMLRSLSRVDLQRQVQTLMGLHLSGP
Put plainly: biochemical. It counts as binding, Kaposi's sarcoma herpesvirus (KSHV). The protocol:
For the competition assay, two-fold serial dilution of the different NEMO mimetics were prepared in DMSO then diluted in TR-FRET buffer to 5× and added in triplicates to a 384 low volume well plate. His-MBP vFLIP diluted to 5× in TR-FRET buffer (250 nM) was then added to each well and incubated for 15 min at RT. His-Biotinylated NEMO diluted to 5× in TR-FRET buffer (250 nM) was the added to the mixture followed by addition of 5× or 200 nM) streptavidin-XL665 and (5× or 1 nM) of the antibody-tagged fluorophore anti-MBPK labeled with Europium cryptate). The final concentration of the NEMO mimetics ranged from 0.195 μM to 100 μM. Total assay volume was 20 μL. The plate was incubated for 1 h at RT then read using BioTek Synergy NEO. Titration of non-biotinylated NEMO (0.0195-10 μM) was used as a positive control in every run. The effect of the peptides on vFLIP/NEMO interaction was normalized to the control and expressed as percent inhibition (% of control):
%ofcontrol=FRETCHD−FRETbackground/FRETcontrol−FRETbackground where FRET control is the TR-FRET signal in DMSO treated wells (highest signal) and FRET background is TR-FRET signal in wells containing the highest concentration of non-biotinylated NEMO (10 μM) which provides the lowest signal. Normalized TR-FRET data was plotted using Graphpad Prism.
Supplementary Figure 1. Schematic representation of the Time-resolved Fluorescence Energy Transfer (TR-FRET) binding assay. (a) Complexes of recombinant his-MBP vFLIP, biotinylated His-NEMO, Europium cryptate conjugated anti-MBP antibody and strepavidin XL665 were used to generate proximity for a FRET signal between the donor fluorophore Europium cryptate and the acceptor fluorophore strepavidin XL665. The TR-FRET signal was calculated as a ratiometric measurement of the acceptor fluoroscence emission at 665nm over the donor emission at 620nm multiplied by 10000. […] (d) Size exclusion chromatography of NEMO-vFLIP complex indicating a shift to the left in absorbance at 280nm when NEMO binds specifically to vFLIP. […]

What is called Ki is a measure of affinity in units of concentration, obtained from inhibition or displacement. In the case of `CC[C@H](C)[C@H](NC(=O)[C@H](C)NC(=O)[C@H](CCC(=O)O)NC(C)=O)C(=O)N[C@@H](CCCNC(=N)N)C(=O)N[C@@H](CCC(N)=O)C(=O)N[C@@H](CC(C)C)C(=O)N[C@@H](Cc1ccc(O)cc1)C(=O)N[C@@H](CCC(=O)O)C(=O)N[C@@H](CCC(=O)O)C(=O)N[C@H](C(=O)N[C@@H](CCCNC(=N)N)C(=O)N[C@@H](CC(N)=O)C(=O)N[C@@H](CC(C)C)C(=O)N[C@@H](CCCCn1cc(COCc2cn(CCCC[C@H](NC(=O)[C@H](CCCNC(=N)N)NC(=O)[C@H](Cc3ccccc3)NC(=O)[C@H](CC(C)C)NC(=O)[C@H](CCCNC(=N)N)NC(=O)[C@H](Cc3c[nH]cn3)NC(=O)[C@@H](NC(=O)[C@H](CCC(=O)O)NC(C)=O)[C@@H](C)CC)C(=O)N[C@H](C(=O)N[C@@H](CC(=O)O)C(=O)N[C@@H](CCC(=O)O)C(=O)N[C@@H](CC(C)C)C(=O)N[C@H](C(=O)N[C@@H](CCCNC(=N)N)C(N)=O)[C@@H](C)CC)[C@@H](C)CC)nn2)nn1)C(N)=O)[C@@H](C)CC` [CHD1^NEMO], the Ki is over 50 µM.

On to `CC[C@H](C)[C@H](NC(=O)[C@H](C)NC(=O)[C@H](CCC(=O)O)NC(C)=O)C(=O)N[C@@H](CCCNC(=N)N)C(=O)N[C@@H](CCC(N)=O)C(=O)N[C@@H](CC(C)C)C(=O)N[C@@H](Cc1c[nH]c2ccccc12)C(=O)N[C@@H](CCC(=O)O)C(=O)N[C@@H](CCC(=O)NC1CCCCC1)C(=O)N[C@H](C(=O)N[C@@H](CCCNC(=N)N)C(=O)N[C@@H](CCCNC(=N)N)C(=O)N[C@@H](CC(C)C)C(=O)N[C@@H](CCCCn1cc(COCc2cn(CCCC[C@H](NC(=O)[C@H](CCCNC(=N)N)NC(=O)[C@H](Cc3ccccc3)NC(=O)[C@H](CC(C)C)NC(=O)[C@H](CCCNC(=N)N)NC(=O)[C@H](C)NC(=O)[C@@H](NC(=O)[C@H](CCC(=O)O)NC(C)=O)[C@@H](C)CC)C(=O)N[C@H](C(=O)N[C@@H](CC(=O)O)C(=O)N[C@@H](CCC(=O)O)C(=O)N[C@@H](CC(C)C)C(=O)N[C@H](C(=O)N[C@@H](CCCNC(=N)N)C(N)=O)[C@@H](C)CC)[C@@H](C)CC)nn2)nn1)C(N)=O)[C@@H](C)CC` [CHD4^NEMO], for which the Ki is over 50 µM.
